Measured values taken from US10214512B2, “Factor XIA inhibitors” (MERCK SHARP & DOHME CORP., priority 2015, dated 2019).

Molecular target: purified Human plasma Kallikrein (Homo sapiens (Human), UniProt P03952)
Test: Kallikrein Assay
Format: biochemical
Conditions: purified Human plasma Kallikrein 0.5 nM; substrate Acetyl-K-P-R-AFC; 50 mM HEPES pH 7.4; Ki from IC50 by Cheng Prusoff
Method: The effectiveness of a compound of the present invention as an inhibitor of Kallikrein can be determined using a relevant purified serine protease, and an appropriate synthetic substrate. The rate of hydrolysis of the chromogenic or fluorogenic substrate by the relevant serine protease was measured both in the absence and presence of compounds of the present invention. Assays were conducted at rt or at 37° C. […] A decrease in the rate of fluorescence change in the presence of inhibitor is indicative of enzyme inhibition. Such methods are known to one skilled in the art. The results of this assay are expressed as the inhibitory constant, Ki.
Kallikrein determinations were made in 50 mM HEPES buffer at pH 7.4 containing 150 mM NaCl, 5 mM CaCl2, and 0.1% PEG 8000 (polyethylene glycol; Fisher Scientific). Determinations were made using purified Human plasma Kallikrein at a final concentration of 0.5 nM (Enzyme Research Laboratories) and the synthetic substrate, Acetyl-K-P-R-AFC (Sigma # C6608) at a concentration of […].
Times required to achieve equilibration between enzyme and inhibitor were determined in control experiments. […] IC50 was determined by inflection point from a four parameter logistic curve fit. Ki was calculated using the Cheng Prusoff equation, Ki=IC50/(1+([S]/Km)).

Sequence of purified Human plasma Kallikrein (P03952 391-638): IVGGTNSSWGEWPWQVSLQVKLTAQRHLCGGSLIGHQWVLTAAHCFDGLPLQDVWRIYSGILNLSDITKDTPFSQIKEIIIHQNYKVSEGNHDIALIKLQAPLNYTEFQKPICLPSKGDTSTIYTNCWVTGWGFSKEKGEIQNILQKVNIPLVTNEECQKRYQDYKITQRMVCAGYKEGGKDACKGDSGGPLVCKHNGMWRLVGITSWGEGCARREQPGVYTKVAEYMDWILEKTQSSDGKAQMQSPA
Sequence of purified Human plasma Kallikrein (P03952 20-390 partner): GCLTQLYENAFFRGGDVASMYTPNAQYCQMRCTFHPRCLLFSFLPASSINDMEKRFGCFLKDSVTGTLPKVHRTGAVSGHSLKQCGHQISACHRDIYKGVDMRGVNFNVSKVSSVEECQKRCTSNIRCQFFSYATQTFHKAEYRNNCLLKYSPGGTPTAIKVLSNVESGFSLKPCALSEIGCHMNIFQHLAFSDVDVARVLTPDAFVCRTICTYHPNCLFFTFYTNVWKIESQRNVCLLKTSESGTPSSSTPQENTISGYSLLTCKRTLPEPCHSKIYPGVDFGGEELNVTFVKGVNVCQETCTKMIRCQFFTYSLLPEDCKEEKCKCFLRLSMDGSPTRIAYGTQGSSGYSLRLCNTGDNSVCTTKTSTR

Ki	SMILES
53.7 nM	COC(=O)Nc1ccc2c(c1)NC(=O)[C@@H](C)CCC[C@@H](c1ccc(-c3cc(F)ccc3OC(F)(F)F)c[n+]1[O-])c1nc-2c(C)[nH]1 (single isomer, unassigned) [Example 149-b]
1.69 nM	COC(=O)Nc1ccc2c(c1)NC(=O)[C@H](C)CCC[C@H](c1ccc(-c3cc(Cl)ccc3OC(F)(F)F)c[n+]1[O-])c1cccc-2c1 (single isomer, unassigned) [Example 77-a]
0.24 nM	COC(=O)Nc1ccc2c(c1)NC(=O)C(C)CCCC(c1ccc(-c3c(F)ccc(Cl)c3F)c[n+]1[O-])c1nc-2c[nH]1 (single isomer, unassigned) [Example 114-a, (Z)-5-(3-chloro-2,6-difluorophenyl)-2-(2^4-((methoxycarbonyl)amino)-5-methyl-4-oxo-1^1H-3-aza-1(4,2)-imidazola-2(1,2) -benzenacyclononaphane-9-yl)pyridine 1-oxide]
31.2 nM	COC(=O)Nc1ccc2c(c1)NC(=O)[C@@H](C)CCC[C@@H](c1ccc(-c3c(OC(F)F)ccc(F)c3F)c[n+]1[O-])c1nc-2c(C)[nH]1 (single isomer, unassigned) [Example 150-b]
0.78 nM	COC(=O)Nc1ccc2c(c1)NC(=O)C(C)CCCC(c1ccc(-c3c(F)ccc(Cl)c3F)c[n+]1[O-])c1nc-2c[nH]1 (single isomer, unassigned) [Example 114-c, (Z)-5-(3-chloro-2,6-difluorophenyl)-2-(2^4-((methoxycarbonyl)amino)-5-methyl-4-oxo-1^1H-3-aza-1(4,2)-imidazola-2(1,2) -benzenacyclononaphane-9-yl)pyridine 1-oxide]
1.1 nM	COC(=O)Nc1ccc2c(c1)NC(=O)[C@@H](C)CCC[C@H](c1ccc(-c3c(F)cccc3F)c[n+]1[O-])c1nc-2c(C2CC2)[nH]1 (single isomer, unassigned) [Example 145-c]
0.51 nM	COC(=O)Nc1ccc2c(c1)NC(=O)[C@H](C)CCC[C@H](c1ccc(-c3c(OC(F)F)ccc(F)c3F)c[n+]1[O-])c1nc-2c(C)[nH]1 (single isomer, unassigned) [Example 150-a]
0.3 nM	COC(=O)Nc1ccc2c(c1)NC(=O)[C@H](C)CCC[C@H](c1ccc(-c3c(F)cccc3F)c[n+]1[O-])c1nc-2c(C2CC2)[nH]1 (single isomer, unassigned) [Example 145-a]
2.76 nM	COC(=O)Nc1ccc2c(c1)NC(=O)CC[C@@H](C)C[C@H](c1ccc(-c3c(F)cccc3OC(F)F)c[n+]1[O-])c1nc-2c(C)[nH]1 (single isomer, unassigned) [Example 152-a]
0.66 nM	COC(=O)Nc1ccc2c(c1)NC(=O)CCCC[C@H](c1ccc(-c3c(OC(F)F)ccc(F)c3F)c[n+]1[O-])c1nc-2c(C)[nH]1 (single isomer, unassigned) [Example 130]
3.46 nM	CCc1[nH]c2nc1-c1ccc(NC(=O)OC)cc1NC(=O)[C@@H](C)CCC[C@@H]2c1ccc(-c2c(F)cccc2OC(F)F)c[n+]1[O-] (single isomer, unassigned) [Example 146-c]
7.71 nM	COC(=O)Nc1ccc2c(c1)NC(=O)[C@@H](C)CCC[C@H](c1ccc(-c3cc(F)ccc3OC(F)(F)F)c[n+]1[O-])c1nc-2c(C)[nH]1 (single isomer, unassigned) [Example 149-c]
17.3 nM	COC(=O)Nc1ccc2c(c1)NC(=O)[C@@H](C)CCC[C@H](c1ccc(-c3cc(Cl)ccc3OC(F)(F)F)c[n+]1[O-])c1cccc-2c1 (single isomer, unassigned) [Example 77-b]
1.5 nM	COC(=O)Nc1ccc2c(c1)NC(=O)[C@@H](C)CCC[C@H](c1ccc(-c3c(OC(F)F)ccc(F)c3F)c[n+]1[O-])c1nc-2c(C)[nH]1 (single isomer, unassigned) [Example 150-c]
114 nM	COC(=O)Nc1ccc2c(c1)NC(=O)CC[C@H](C)C[C@H](c1ccc(-c3c(F)cccc3OC(F)F)c[n+]1[O-])c1nc-2c(C)[nH]1 (single isomer, unassigned) [Example 152-b]
5.32 nM	COC(=O)Nc1ccc2c(c1)NC(=O)CCCCC(c1ccc(-c3c(F)cccc3OC(F)(F)F)c[n+]1[O-])c1nc-2c(C)[nH]1 (single isomer, unassigned) [Example 131]

The next lines start with the molecule.

SMILES	Ki
COC(=O)Nc1ccc2c(c1)NC(=O)CCCC[C@H](c1ccc(-c3cc(Cl)ccc3-n3cc(C4CC4)nn3)c[n+]1[O-])c1cccc-2c1 (single isomer, unassigned) [Example 38]	0.95 nM
COC(=O)Nc1ccc2c(c1)NC(=O)CCCCC(c1ccc(-c3c(F)ccc(Cl)c3F)c[n+]1[O-])c1ccnc-2c1 (single isomer, unassigned) [Example 93-a, 5-(3-Chloro-2,6-difluorophenyl)-2-(2^4-((methoxycarbonyl)amino)-4-oxo-3-aza-1 (2,4)-pyridina-2(1,2)-benzenacyclononaphane-9-yl)pyridine 1-oxide]	1.92 nM
COC(=O)Nc1ccc2c(c1)NC(=O)CC[C@H](C)C[C@H](c1ccc(-c3c(F)ccc(Cl)c3F)c[n+]1[O-])c1nc-2c(C)[nH]1 (single isomer, unassigned) [Example 151-b]	10.8 nM
COC(=O)Nc1ccc2c(c1)NC(=O)CCCC[C@H](c1ccc(-c3c(F)cccc3-n3cc(C(F)(F)F)cn3)c[n+]1[O-])c1nc-2c[nH]1 (single isomer, unassigned) [Example 115]	331 nM
COC(=O)Nc1ccc2c(c1)NC(=O)C(C)CCCC(c1cc(OC)c(-c3c(F)ccc(Cl)c3F)c[n+]1[O-])c1cccc-2c1 (single isomer, unassigned) [Example 88-b, 5-(3-Chloro-2,6-difluorophenyl)-4-methoxy-2-(2^4-((methoxycarbonyl)amino)-5-methyl-4-oxo-3-aza-1(1,3),2(1,2) -dibenzenacyclononaphane-9-yl)pyridine 1-oxide]	2.67 nM
COC(=O)Nc1ccc2c(c1)NC(=O)CC[C@@H](C)C[C@@H](c1ccc(-c3c(F)ccc(Cl)c3F)c[n+]1[O-])c1nc-2c(C)[nH]1 (single isomer, unassigned) [Example 151-c]	29 nM
COC(=O)Nc1ccc2c(c1)NC(=O)CC[C@@H](C)C[C@H](c1ccc(-c3c(F)ccc(Cl)c3F)c[n+]1[O-])c1nc-2c(C)[nH]1 (single isomer, unassigned) [Example 151-a]	0.16 nM
COC(=O)Nc1ccc2c(c1)NC(=O)CCCC[C@H](c1ccc(-c3cc(Cl)ccc3-n3cnnn3)c[n+]1[O-])c1cc-2ncc1F (single isomer, unassigned) [Example 71]	0.33 nM
COC(=O)Nc1ccc2c(c1)NC(=O)C(C)CCCC(c1ccc(-c3c(F)ccc(Cl)c3F)cn1)c1cc-2ccn1 (single isomer, unassigned) [Example 95-a, Methyl (9-(5-(3-chloro-2,6-difluorophenyl)pyridin-2-yl)-5-methyl-4-oxo-3-aza-1(4,2)-pyridina-2(1,2)-benzenacyclononaphane-2^4-yl)carbamate]	11.7 nM
C[C@H]1CCC[C@@H](c2ccc(-c3cc(Cl)ccc3-n3cc(C(F)(F)F)cn3)c[n+]2[O-])c2cccc(c2)-c2c(cnn2C(F)F)NC1=O (single isomer, unassigned) [Example 168-d]	161 nM
COC(=O)Nc1ccc2c(c1)NC(=O)CCCCC(c1ccc(-c3cc(Cl)ccc3-n3cc(C(=O)O)nn3)cn1)c1cccc-2c1 (single isomer, unassigned) [Example 92-a, 1-(4-chloro-2-(6-(2^4-((methoxycarbonyl)amino)-4-oxo-3-aza-1(1,3),2(1,2) -dinenzenacyclononaphane-9-yl)pyridin-3-yl)phenyl)-1H-1,2,3-triazole-4-carboxylic acid]	26 nM
COC(=O)Nc1ccc2c(c1)NC(=O)CCCC[C@H](c1ccc(-c3c(F)cccc3-n3cc(C(F)(F)F)cn3)c[n+]1[O-])c1nc-2c(C)[nH]1 (single isomer, unassigned) [Example 137]	418 nM
COC(=O)Nc1ccc2c(c1)NC(=O)CCCC[C@H](c1ccc(-c3c(F)cccc3OC(F)F)c[n+]1[O-])c1cccc-2c1 (single isomer, unassigned) [Example 34]	5.01 nM
